From ChEMBL document CHEMBL1201862, “PubChem BioAssay data set” (2004)
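All cell lines were grown in 96-well plates and treated with compound for 48 hours. The concentration for 50% growth inhibition is given as GI50.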 The source made the active and inactive calls. Rule as the data show it: active = GI50 up to about 1.1 µM and inactive = higher.

Legend:
Assay in all cases: inhibition of tumour cell growth, NCI panel, 48 h
EKVX = test system: EKVX
HCC 2998 = test system: HCC 2998
PC-3 = test system: PC-3
TK-10 = test system: TK-10
HCT-116 = test system: HCT-116
NCI-H226 = test system: NCI-H226
SN12C = test system: SN12C
MCF7 = test system: MCF7
RPMI-8226 = test system: RPMI-8226
OVCAR-5 = test system: OVCAR-5
SF-539 = test system: SF-539
DU-145 = test system: DU-145
HCT-15 = test system: HCT-15
786-0 = test system: 786-0
T47D = test system: T47D
SK-MEL-5 = test system: SK-MEL-5
RXF 393 = test system: RXF 393

Structure (SMILES)	GI50 (EKVX)	GI50 (HCC 2998)	GI50 (PC-3)	GI50 (TK-10)	GI50 (HCT-116)	GI50 (NCI-H226)	GI50 (SN12C)	GI50 (MCF7)	GI50 (RPMI-8226)	GI50 (OVCAR-5)	GI50 (SF-539)	GI50 (DU-145)	GI50 (HCT-15)	GI50 (786-0)	GI50 (T47D)	GI50 (SK-MEL-5)	GI50 (RXF 393)
CC(C)c1c(P(=O)(c2ccccc2)c2ccccc2)n(C)c2ccccc12	> 100 µM (inactive)	> 100 µM (inactive)	58.7 µM (inactive)	> 100 µM (inactive)	35.9 µM (inactive)	52.8 µM (inactive)	> 100 µM (inactive)	> 100 µM (inactive)	56.6 µM (inactive)	54.7 µM (inactive)	> 100 µM (inactive)	80.2 µM (inactive)	72.3 µM	> 100 µM (inactive)	77.1 µM (inactive)	–	–
Cc1ccc(OCC2OC(n3cnc4c(Cl)nc(Cl)nc43)CC2Oc2ccc(C)cc2)cc1 (stereo not given)	3.52 µM (inactive)	16.5 µM (inactive)	2.44 µM (inactive)	11.2 µM (inactive)	1.91 µM (inactive)	3 µM (inactive)	3.85 µM (inactive)	1.85 µM (inactive)	1.23 µM (inactive)	5.78 µM (inactive)	1.93 µM (inactive)	1.91 µM (inactive)	1.82 µM	14.5 µM (inactive)	2.14 µM (inactive)	7.1 µM (inactive)	–
O=C(Nc1ccccc1)c1cc2ccccc2c(/N=N\c2cccc([N+](=O)[O-])c2)c1O	39 µM (inactive)	> 100 µM (inactive)	> 100 µM (inactive)	> 100 µM (inactive)	> 100 µM (inactive)	> 100 µM (inactive)	> 100 µM (inactive)	> 100 µM (inactive)	–	> 100 µM (inactive)	54.8 µM (inactive)	> 100 µM (inactive)	> 100 µM	31.3 µM (inactive)	> 100 µM (inactive)	> 100 µM (inactive)	47.8 µM (inactive)
CC#CS(=O)(=O)c1ccccc1	18.6 µM (inactive)	3.96 µM (inactive)	12.1 µM (inactive)	4.92 µM (inactive)	4.36 µM (inactive)	9.91 µM (inactive)	6.32 µM (inactive)	6.87 µM (inactive)	–	5.58 µM (inactive)	4.08 µM (inactive)	2.82 µM (inactive)	2.88 µM	3.43 µM (inactive)	2.33 µM (inactive)	2.81 µM (inactive)	14.2 µM (inactive)
COC(=O)C1=CC(=O)OC1(OO)c1ccc(Br)cc1 (stereo not given)	> 100 µM (inactive)	> 100 µM (inactive)	> 100 µM (inactive)	> 100 µM (inactive)	47.1 µM (inactive)	> 100 µM (inactive)	> 100 µM (inactive)	> 100 µM (inactive)	–	> 100 µM (inactive)	> 100 µM (inactive)	> 100 µM (inactive)	46.5 µM	65.2 µM (inactive)	> 100 µM (inactive)	> 100 µM (inactive)	> 100 µM (inactive)
OCCN(CCO)c1nc(N2CCCCC2)c2nc(N(CCO)CCO)nc(N3CCCCC3)c2n1 [DIPYRIDAMOLE]	25.6 µM (inactive)	16.3 µM (inactive)	33.3 µM (inactive)	17.1 µM (inactive)	40.3 µM (inactive)	48.9 µM (inactive)	34 µM (inactive)	> 10 µM (inactive)	> 10 µM (inactive)	90.8 µM (inactive)	–	48.8 µM (inactive)	31.4 µM	31.9 µM (inactive)	35.6 µM (inactive)	21.6 µM (inactive)	–
OCCN(C1=NCCN1)/[N+](=C/c1ccccc1O)[CH-]c1ccccc1O	> 100 µM (inactive)	> 100 µM (inactive)	> 100 µM (inactive)	> 100 µM (inactive)	> 100 µM (inactive)	28.6 µM (inactive)	> 100 µM (inactive)	> 100 µM (inactive)	> 100 µM (inactive)	> 100 µM (inactive)	> 100 µM (inactive)	> 100 µM (inactive)	51.5 µM	> 100 µM (inactive)	> 100 µM (inactive)	> 100 µM (inactive)	–
